This passage reports Km and Ki results from patent US4487831A, “Process for the conversion of cellulose to glucose” (Research Corporation, priority 1982, dated 1984).

Like-named read-outs stand apart in the source and are kept apart here.

In assay [1] the test system is cellobiase from Trichoderma reesei. Conditions: Table 3; substrate cellobiose; as reported in the literature; cited from earlier work.
Assay [2] concerns cellobiase from Aspergillus phoenicis. The following applies: Table 3; substrate cellobiose; as reported in the literature; cited from earlier work.
In assay [3] the test system is purified cellobiase from Aspergillus terreus (ATCC 20514). The experiment in a line: Km of purified cellobiase for cellobiose. The following applies: substrate cellobiose. Format: biochemical. As for the experimental part: The activity on cellobiose was determined by two different methods. In the first method 0.4 ml of the substrate, 12.5 mM cellobiose in 0.0625M sodium citrate buffer (pH 4.8), was preheated to 50° C., then 0.1 ml of the preheated enzyme solution was added to the substrate and the tubes stoppered. Each sample was incubated for 1.5 minutes placed in a boiling water bath for 30 seconds and then immediately cooled in an ice bath. This reaction mixture was added to 5 ml of the glucose oxidase reagent from a glucose assay kit (Sigma Chemical Co.) and the amount of glucose produced from cellobiose hydrolysis was determined spectrophometrically.
In the second method the amount of glucose produced was measured on a high pressure liquid chromatograph. The cellobiose substrate consisted of 0.03M cellobiose in 0.075M sodium citrate buffer (pH 4.8). The substrate and enzyme solution was preheated to 50° C., then 0.25 ml of the enzyme solution was added to 0.5 ml of the substrate and incubated for 10 minutes. […]
Using cellobiose as the substrate, the purified cellobiase enzyme from Aspergillus terreus was capable of producing 215 micromoles of glucose from cellobiose per minute per milligram of enzyme protein. […] The specific activity of our purified cellobiase is expressed as 215 units per mg protein. […]

The target in assay [4] is cellobiase from Phanerochaete chrysosporium. Conditions: Table 4; inhibitor glucose; type of inhibition competitive; reference (3) Smith and Gold 1979; cited from earlier work.
Assay [5] has as its target T1, cellobiase from Alcaligenes faecalis (Agrobacterium sp., UniProt P12614).
T1 sequence (P12614 1-459): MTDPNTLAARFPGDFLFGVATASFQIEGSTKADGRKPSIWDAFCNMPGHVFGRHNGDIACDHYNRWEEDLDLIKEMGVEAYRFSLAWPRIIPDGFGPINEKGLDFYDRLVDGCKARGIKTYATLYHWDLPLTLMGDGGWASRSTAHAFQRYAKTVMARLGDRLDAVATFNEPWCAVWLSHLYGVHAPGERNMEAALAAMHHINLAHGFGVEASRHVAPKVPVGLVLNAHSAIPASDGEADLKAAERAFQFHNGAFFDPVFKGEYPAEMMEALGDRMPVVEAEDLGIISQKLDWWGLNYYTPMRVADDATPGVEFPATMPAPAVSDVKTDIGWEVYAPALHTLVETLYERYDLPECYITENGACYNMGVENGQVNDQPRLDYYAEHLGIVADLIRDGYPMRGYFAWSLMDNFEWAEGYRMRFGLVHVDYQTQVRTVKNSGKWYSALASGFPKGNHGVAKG
Conditions: read-out: Ki (molar); Table 4; inhibitor glucose; type of inhibition competitive; reference (1) Ivanova et al 1980; cited from earlier work.

Assay [6] addresses cellobiase from Lenzites trabes. The following applies: Table 4; inhibitor glucose; type of inhibition noncompetitive; reference (2) Herr et al 1978; cited from earlier work.
In assay [7] the target is purified cellobiase from Aspergillus terreus (ATCC 20514). Briefly: Glucose inhibition of purified cellobiase, PNPG as substrate. Type of assay: biochemical. As for the experimental part: The β-glucosidase activity was routinely determined using p-nitrophenyl-β-D-glucoside (PNPG) as the substrate. Two milliliters of a 10 mM PNPG solution in 0.05M sodium citrate buffer solution (pH 4.8) were heated to 50° C. Then […] of the enzyme solution was added to the substrate and incubated for 15 minutes. After incubation, 3 ml of 1.0M aqueous sodium carbonate solution were added to stop the reaction and develop the color. The absorbance was read at 400 nm and the amount of p-nitrophenol liberated was determined from a standard curve. The time of incubation varied depending on the activity of the enzyme preparation tested. A unit (IU) of activity was defined as the amount of enzyme required to liberate one micromole of p-nitrophenol per minute from the substrate.
Glucose is a competitive inhibitor of the cellobiase enzyme from Aspergillus terreus. […] The Ki is the concentration of inhibitor required to slow the reaction down to one-half its maximum velocity, therefore, the larger the Ki the less inhibitory the inhibitor is.

One may read the Km as the concentration of substrate that gives half-maximal velocity. Take `OC[C@H]1O[C@@H](O[C@H]2[C@H](O)[C@@H](O)C(O)O[C@@H]2CO)[C@H](O)[C@@H](O)[C@@H]1O` (stereo partly drawn) [cellobiose]: the Km in assay [1] was 3300 µM; in assay [2] it was 750 µM; in assay [3] (Table 3, read-out: Km), 400 µM; in assay [3] (purified enzyme, pH 4.8, 50° C., read-out: affinity (Km) for cellobiose), 400 µM.

Broadly, the Ki is the equilibrium dissociation constant of an inhibitor or competing ligand from its target. With `OC[C@H]1OC(O)[C@H](O)[C@@H](O)[C@@H]1O` (stereo partly drawn) [glucose], the inhibition constant (Ki) was 0.5 mM in assay [4]; 3 mM in assay [5]; 2.7 mM in assay [6]; 3.5 mM in assay [7] (Table 4, inhibitor glucose, type of inhibition competitive, read-out: Ki); 3.5 mM in assay [7] (competitive inhibitor, p-nitrophenyl-β-D-glucoside as substrate, read-out: Ki dissociation constant for glucose).
